Measurements from patent publication US5032588A, “Thiazole lipoxygenase-inhibiting compounds derived from non-steroidal antiinflammatory carboxylic acids” (Abbott Laboratories, priority 1989, dated 1991).

Target: T1, 5-lipoxygenase (Rattus norvegicus, UniProt P12527)
T1 construct: 20,000x g supernatant from homogenized RBL-1 cells; endogenous in cells; host or cells: RBL-1 cells (20,000 x g supernatant of homogenate)
T1 sequence (P12527 1-673): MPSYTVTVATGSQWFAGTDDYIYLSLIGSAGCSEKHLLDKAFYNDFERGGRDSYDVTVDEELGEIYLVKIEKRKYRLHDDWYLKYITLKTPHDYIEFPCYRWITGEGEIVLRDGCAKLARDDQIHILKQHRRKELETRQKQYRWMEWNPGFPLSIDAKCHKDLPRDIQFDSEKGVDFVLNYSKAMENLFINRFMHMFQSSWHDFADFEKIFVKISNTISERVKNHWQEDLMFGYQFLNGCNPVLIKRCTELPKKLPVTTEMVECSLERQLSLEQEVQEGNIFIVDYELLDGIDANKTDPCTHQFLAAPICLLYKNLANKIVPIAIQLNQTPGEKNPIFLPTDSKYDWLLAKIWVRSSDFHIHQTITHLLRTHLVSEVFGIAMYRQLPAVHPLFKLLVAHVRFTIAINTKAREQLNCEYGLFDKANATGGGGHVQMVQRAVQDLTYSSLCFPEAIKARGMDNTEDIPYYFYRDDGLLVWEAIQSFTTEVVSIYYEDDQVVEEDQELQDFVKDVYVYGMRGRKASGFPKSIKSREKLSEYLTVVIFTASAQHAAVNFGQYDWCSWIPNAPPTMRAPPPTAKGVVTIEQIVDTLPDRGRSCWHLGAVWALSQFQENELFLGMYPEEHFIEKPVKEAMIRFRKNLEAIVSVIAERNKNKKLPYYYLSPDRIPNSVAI
Experiment: Inhibition of 5-lipoxygenase activity (20,000x g supernatant from homogenized RBL-1 cells)
Type: biochemical
Settings: linear regression of percentage inhibition versus log inhibitor concentration, read-out: IC50 (concentration of compound producing 50% enzyme inhibition)
Method: Inhibition of 5-lipoxygenase activity was determined using the 20,000x g supernatant from homogenized RBL-1 cells in a similar manner as that described by Dyer and coworkers (Dyer, R. D.; Haviv, F.; Hanel, A. M.; Bornemier, D. A.; Carter, G. W. Fed. Proc., Fed. Am. Soc. Exp. Biol., 43:1462A, (1984).) IC50 values (concentration of compound producing 50% enzyme inhibition) were calculated by linear regression analysis of percentage inhibition versus log inhibitor concentration plots.

IC50 | Compound
420 nM | COc1ccc2cc(C(C)c3nc(O)c(-c4ccccc4)s3)ccc2c1 (centres unmarked) [Example 1, 2-[1-(6-methoxy-2-naphthyl)ethyl]-5-phenyl-4-hydroxythiazole]
900 nM | COc1ccc2cc(C(C)c3sc(-c4ccccc4)nc3O)ccc2c1 (centres unmarked) [Example 5, 5-[1-(6-methoxy-2-naphthyl)ethyl]-2-phenyl-4-hydroxythiazole]

The next lines start with the compound.

Compound | IC50
CC(C)Cc1ccc(C(C)c2nc(O)c(-c3ccccc3)s2)cc1 (centres unmarked) [Example 2, 2-[1-(4-isobutylphenyl)ethyl]-5-phenyl-4-hydroxy-thiazole] | 710 nM
CC(C)Cc1ccc(Cc2nc(O)c(-c3ccccc3)s2)cc1 [Example 3, 2-[(4-isobutylphenyl)methyl]-5-phenyl-4-hydroxythiazole] | 1100 nM
CCC(c1ccc(CC(C)C)cc1)c1nc(O)c(-c2ccccc2)s1 (centres unmarked) [Example 4, 2-[1-(4-isobutylphenyl)propyl]-5-phenyl-4-hydroxythiazole] | 60 nM
